Data published in ChEMBL document CHEMBL1201862, “PubChem BioAssay data set” (2004).
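Five compound concentrations were applied to cells in 96-well plates for 48 hours; endpoints were derived by simple linear interpolation of the resulting dose-response curve. GI50: concentration for 50% inhibition of growth.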 The source made the active and inactive calls. No stated cut-off is given here; in the data, active = GI50 up to about 1.1 µM and inactive = higher.

What was measured:
Assay in all cases: growth of human tumour cells (NCI), 48 h
DLD-1 = test system: DLD-1
DMS-273 = test system: DMS-273
KM-20L2 = test system: KM-20L2
M19-MEL = test system: M19-MEL
SNB-78 = test system: SNB-78
XF498 = test system: XF498
DMS-114 = test system: DMS-114
HOP-18 = test system: HOP-18
RXF 631 = test system: RXF 631

SMILES | GI50 (DLD-1) | GI50 (DMS-273) | GI50 (KM-20L2) | GI50 (M19-MEL) | GI50 (SNB-78) | GI50 (XF498) | GI50 (DMS-114) | GI50 (HOP-18) | GI50 (RXF 631)
CCOc1ccccc1NC(=O)CCc1n[nH]c(=S)o1 | > 100 µM (inactive) | > 100 µM (inactive) | > 100 µM (inactive) | > 100 µM (inactive) | > 100 µM (inactive) | > 100 µM (inactive) |  |  | 
CCCCCn1cnc2c1S(=O)(=O)N(C)C(NC(=O)c1ccccc1)=N2 | > 100 µM (inactive) | > 100 µM (inactive) | > 100 µM (inactive) | > 100 µM (inactive) | > 100 µM (inactive) |  | > 100 µM (inactive) |  | 
Cc1ccc(S(=O)(=O)NNS(C)(=O)=O)cc1 | > 100 µM (inactive) | > 100 µM (inactive) | > 100 µM (inactive) | > 100 µM (inactive) |  |  | > 100 µM (inactive) |  | 
O=CC(O)C(O)C(O)COc1cc(CO)cc2c1C(=O)c1ccccc1C2=O (centres undefined) | > 100 µM (inactive) | > 100 µM (inactive) | > 100 µM (inactive) | 37.6 µM (inactive) | > 100 µM (inactive) | > 100 µM (inactive) | > 89.5 µM (inactive) | > 100 µM (inactive) | > 100 µM (inactive)
O=S1(=O)c2ccccc2N=C(c2ccccc2Cl)CC1c1ccc(F)cc1 (centres undefined) | 15.2 µM (inactive) | 22.3 µM (inactive) | 18.6 µM (inactive) | 17.7 µM (inactive) | 19.1 µM (inactive) | 15.6 µM (inactive) | 19.7 µM (inactive) | 9.62 µM (inactive) | 
C/C(=N\NC(=O)c1ccccc1O)C1=CNc2ccccc2S1 | 4.23 µM (inactive) | 3.1 µM (inactive) | 15.7 µM (inactive) | 7.53 µM (inactive) | 7.94 µM (inactive) | 3.99 µM (inactive) |  | 6.25 µM (inactive) | 
Nc1nc(SCc2ccc([N+](=O)[O-])cc2)nc2c1ncn2C1OC(CO)C(O)C1O (centres undefined) | > 100 µM (inactive) | > 100 µM (inactive) | > 100 µM (inactive) | > 100 µM (inactive) | > 100 µM (inactive) | > 100 µM (inactive) | > 100 µM (inactive) |  | 
CN(C)C(=N)NC(N)=S | > 100 µM (inactive) | > 100 µM (inactive) | > 100 µM (inactive) | > 100 µM (inactive) | > 100 µM (inactive) | > 100 µM (inactive) | > 100 µM (inactive) | > 100 µM (inactive) | > 100 µM (inactive)
O=C(c1ccc(Cl)cc1)c1cnc(Nc2ccccc2Cl)s1 | 28.5 µM (inactive) | 20.1 µM (inactive) |  | 34.1 µM (inactive) |  |  | 24.7 µM (inactive) |  | 
[N-]=[N+]=NC(c1cn(C2CC(O)C(CO)O2)c(=O)[nH]c1=O)C(I)I (centres undefined) | > 100 µM (inactive) | > 100 µM (inactive) | > 100 µM (inactive) | > 100 µM (inactive) | > 100 µM (inactive) |  | > 100 µM (inactive) | 2.23 µM (inactive) | 
COc1cc2c(c(OC)c1OC)-c1ccc(SC)c(=O)cc1C(CO)C2 (centres undefined) | 0.169 µM (active) | 0.0614 µM (active) | 0.157 µM (active) | 0.15 µM (active) | 0.0966 µM (active) | 0.149 µM (active) | 0.0791 µM (active) | 24.8 µM (inactive) | < 0.01 µM (active)
C=CCOC1=C2CC[C@H](O)[C@@]2(C)CCC1=O | > 100 µM (inactive) | > 100 µM (inactive) | > 100 µM (inactive) | > 100 µM (inactive) | > 100 µM (inactive) |  | > 100 µM (inactive) | > 100 µM (inactive) | 
CC(=O)OCC1OC(n2c(=S)n(-c3ccccc3)c(=O)c3cc(Br)ccc32)C(OC(C)=O)C(OC(C)=O)C1OC(C)=O (centres undefined) | > 100 µM (inactive) | > 100 µM (inactive) | > 100 µM (inactive) | > 100 µM (inactive) |  |  | > 100 µM (inactive) |  | > 100 µM (inactive)
COc1ccc(N2C(=O)c3c(c4[nH]c5ccccc5c4c4ccc(C(C)(C)C)cc34)C2=O)cc1 | > 100 µM (inactive) | 41.3 µM (inactive) | > 100 µM (inactive) | 50.9 µM (inactive) | 25.7 µM (inactive) | 20.7 µM (inactive) | > 100 µM (inactive) | 58.1 µM (inactive) | 40.6 µM (inactive)
Cn1ncc(=S)[nH]c1=S | > 100 µM (inactive) | > 100 µM (inactive) | > 100 µM (inactive) | > 100 µM (inactive) | > 100 µM (inactive) | > 100 µM (inactive) | > 100 µM (inactive) | 47.6 µM (inactive) | > 100 µM (inactive)
Cc1ccc(NCCN(C)C)c2c(=O)c3cc(O)ccc3sc12 | 6.61 µM (inactive) | 1.05 µM (active) | 8.87 µM (inactive) | 10.4 µM (inactive) | 15.6 µM (inactive) | 4.12 µM (inactive) | 11.7 µM (inactive) | 3.64 µM (inactive) | 
Cc1cccc(-c2nnc(S)[nH]2)c1 | > 100 µM (inactive) | > 100 µM (inactive) | > 100 µM (inactive) | > 100 µM (inactive) | > 100 µM (inactive) | > 100 µM (inactive) |  | > 100 µM (inactive) | > 100 µM (inactive)
O=c1[nH]c2c(nc1NC13CC4CC(CC(C4)C1)C3)c(=O)oc1ccccc12 | 23.8 µM (inactive) | 62.1 µM (inactive) | > 100 µM (inactive) | > 100 µM (inactive) |  | > 100 µM (inactive) | > 100 µM (inactive) |  | 
Cc1noc(C)c1C1=CCCCc2ccccc21 | > 100 µM (inactive) | > 100 µM (inactive) | > 100 µM (inactive) | 90.2 µM (inactive) | > 100 µM (inactive) |  | > 100 µM (inactive) | > 100 µM (inactive) | 
CCOC(=O)C(=O)C1C(=O)Nc2ccccc21 (centres undefined) | > 100 µM (inactive) | > 100 µM (inactive) |  | > 100 µM (inactive) |  | > 100 µM (inactive) | > 100 µM (inactive) |  | > 100 µM (inactive)
CC1=Nn2c(nnc2-c2ccccc2Cl)NC(C)(C)C1 | 54.7 µM (inactive) | > 100 µM (inactive) | > 100 µM (inactive) | > 100 µM (inactive) | > 100 µM (inactive) | > 100 µM (inactive) |  |  | 
CCOC(OC1=C(C#N)CCC1)C(CC)[Se]c1ccccc1 (centres undefined) | 19.6 µM (inactive) | 11.2 µM (inactive) | 26.1 µM (inactive) | 13.9 µM (inactive) | 29.3 µM (inactive) | 24.9 µM (inactive) | 3.1 µM (inactive) | 27.2 µM (inactive) | 
Cc1nc(-n2nc(-c3ccccc3)cc2-c2ccccc2)sc1C(=O)/C=C/c1ccc(Cl)cc1 | 13.2 µM (inactive) | 28.5 µM (inactive) | 24.4 µM (inactive) | 18.4 µM (inactive) | 46 µM (inactive) |  | 11.4 µM (inactive) | 14.4 µM (inactive) | 
COc1ccc(CC2NCCc3cc(OC)c(OC)cc32)cc1Br (centres undefined) | 66.7 µM (inactive) | 22.4 µM (inactive) | 25.8 µM (inactive) | 20.7 µM (inactive) | 42.4 µM (inactive) | 11.9 µM (inactive) | 17.6 µM (inactive) | 23.1 µM (inactive) | 
CN(C)[C@H]1CC[C@H]2[C@@H]3CCC4C[C@@H](NC(=O)NC(Cc5ccccc5)c5nccs5)CC[C@]4(C)[C@H]3CC[C@]12C (some centres undefined) | 1.74 µM (inactive) | 1.94 µM (inactive) | 1.19 µM (inactive) | 1.85 µM (inactive) |  | 1.2 µM (inactive) | 1.79 µM (inactive) |  | 1.92 µM (inactive)
